Values joined by “and” are separate entries in the source; they are usually repeats but may differ in a detail not shown here. Identical values can stand only once.
Biological target: T1, LPA1R (Homo sapiens, UniProt Q92633)
T1 construct: host or cells: LPA1R expressing cells (Millipore, GPCR Profiler)
Test: LPA1R Ca2+ flux functional assay (antagonist mode, FLIPR)
Type: cell-based
Details: inhibition of LPA-stimulated Ca2+ flux, LPA at EC80, LPA1R expressing cells (Millipore); read-out: LPA1 R Antagonist Activity
Method: Inhibition of LPA-stimulated Ca^2+ flux was used to assess compound potency using FLIPR technology in a 96 well plate format. The assay buffer used was a modified Hanks Balanced Salt Solution (HBSS) where HBSS was supplemented to contain 20 mM HEPES and 2.5 mM Probenecid at pH7.4 (Millipore, GPCR Profiler®). LPA1R expressing cells (Millipore) were plated and prepared 24 hours prior to assay of test articles. Ca^2+ ion flux was assessed from fluorescence of a Fluo-based No Wash Ca^2+ dye. Antagonist data are generated from plates with LPA concentrations sufficient to generate 80% efficacy [EC80]. Percentage inhibition was calculated from a reduction of efficacy according to concentration of compounds of Formula I-VI. For dose responses the inhibition data was used to calculate compound IC50. The agonist assay was conducted on a FLIPR^TETRA instrument where the test compound(s), vehicle controls, and reference agonist were added to the assay plate after a fluorescence baseline was established. The agonist assay was a total of 180 seconds and was used to assess each compound's ability to activate each GPCR assayed. Upon completion of the agonist assay, the assay plate was removed from the FLIPR^TETRA and incubated at 25° C. for seven (7) minutes. After the incubation period, the assay plate was placed back in the FLIPR^TETRA and the antagonist assay was initiated. Using EC80 potency values determined during the agonist assay, all pre-incubated sample compound wells were challenged with EC80 concentration of reference agonist after establishment of a fluorescence baseline. The antagonist assay was conducted using the same assay plate that was used for the agonist assay. The antagonist assay was conducted on a FLIPR^TETRA instrument where 9 vehicle controls and EC80 concentration of reference agonist were added to appropriate wells. The antagonist assay was a total of 180 seconds and was used to assess each compound's ability to inhibit each GPCR assayed. All assay plate data were subjected to appropriate baseline corrections. After baseline corrections were applied, maximum fluorescence values were exported and data processed to calculate percentage activation (relative to Emax reference agonist and vehicle control values), percentage inhibition (relative to EC80 and vehicle control values), and additional statistical values (i.e. Z′, percentage variation between replicate data values) to assess the quality of each plate. Where assay plate data were rejected, additional experiments were conducted. All dose response curves were generated using GraphPad Prism. The curves were fit by utilizing “Sigmoidal Dose Response (Variable Slope)” equation where the bottom parameter was fixed to “0.” Where appropriate, the top parameter was fixed to “100” to better predict potency values when a full curve was not generated by the concentrations assayed.

T1 sequence (Q92633 whole entry): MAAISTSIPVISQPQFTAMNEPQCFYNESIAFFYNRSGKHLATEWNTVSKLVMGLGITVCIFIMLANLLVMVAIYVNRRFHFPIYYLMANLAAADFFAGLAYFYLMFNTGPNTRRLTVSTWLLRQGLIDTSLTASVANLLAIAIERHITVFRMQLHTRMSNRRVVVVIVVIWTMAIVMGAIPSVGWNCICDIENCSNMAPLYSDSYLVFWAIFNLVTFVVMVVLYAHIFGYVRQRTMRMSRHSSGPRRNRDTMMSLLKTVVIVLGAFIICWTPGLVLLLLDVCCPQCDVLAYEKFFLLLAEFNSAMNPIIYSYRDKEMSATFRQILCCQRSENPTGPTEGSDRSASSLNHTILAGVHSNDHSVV

Question: For Cc1ccc(C[C@@H](NC(=O)c2ccc(-c3onc(C)c3NC(=O)O[C@H](C)c3ccccc3Cl)cc2)C(=O)O)cc1 [Example 27, (R)-2-(4-{4-[(R)-1-(2-Chloro-phenyl)-ethoxycarbonylamino]-3-methyl-isoxazol-5-yl}-benzoylamino)-3-p-tolyl-propionic Acid], which IC50 is on record?
Answer: Its IC50 is < 300 nM.

Question: How did the IC50 turn out when C[C@@H](OC(=O)Nc1c(F)cnn1-c1ccc(-c2ccc(C3(C(=O)O)CC3)cc2Cl)cc1)c1ccccc1Cl [Example 51, (R)-1-(2-Chloro-4′-{5-[1-(2-chloro-phenyl)-ethoxycarbonylamino]-4-fluoro-pyrazol-1-yl}-biphenyl-4-yl)-cyclopropanecarboxylic Acid] was run?
Answer: Its IC50 is < 300 nM.

Question: With Cc1c(NC(=O)O[C@H](C)c2ccccc2)c(-c2ccc(C(=O)N[C@H](Cc3ccccc3)C(=O)O)cc2)nn1C [Example 8, (R)-2-[[4-[1,5-dimethyl-4-((R)-1-phenylethoxycarbonylamino)pyrazol-3-yl]benzoyl]amino]-3-phenyl-propanoic Acid] as the molecule, how does the IC50 read?
Answer: The IC50 was > 50000 nM.

Question: Cc1nn(C)c(-c2ccc(C(=O)N[C@H](Cc3ccc(F)cc3)C(=O)O)cc2)c1NC(=O)O[C@H](C)c1ccccc1 [Example 9, (R)-2-[[4-[2,5-dimethyl-4-((R)-1-phenylethoxycarbonylamino)pyrazol-3-yl]benzoyl]amino]-3-(4-fluorophenyl)propanoic Acid] was tested. Which IC50 did it give?
Answer: The IC50 was > 50000 nM.

Question: For CC(OC(=O)Nc1c(C#N)cnn1-c1ccc(-c2ccc(CC(=O)O)cc2)cc1)c1ccccc1Cl (stereo not shown) [Example 46, 2-[4-[4-[5-[1-(2-chlorophenyl)ethoxycarbonylamino]-4-cyano-pyrazol-1-yl]phenyl]phenyl]acetic Acid], which IC50 is on record?
Answer: Its IC50 is 1000 to 50000 nM.

Question: Which IC50 does the source give for C[C@@H](OC(=O)Nc1c(C(F)(F)F)cnn1-c1ccc(-c2ccc(C3(C(=O)O)CC3)cc2F)cc1)c1ccccc1 [Example 55, (R)-1-{2-Fluoro-4′-[5-(1-phenyl-ethoxycarbonylamino)-4-trifluoromethyl-pyrazol-1-yl]-biphenyl-4-yl}-cyclopropanecarboxylic Acid] here?
Answer: The IC50 was 300 to 1000 nM.

Question: How did the IC50 turn out when Cc1noc(-c2ccc(CN[C@H](Cc3ccccc3Cl)C(=O)O)cc2)c1NC(=O)O[C@H](C)c1ccccc1 [Example 35, (R)-3-(2-Chloro-phenyl)-2-{4-[3-methyl-4-((R)-1-phenyl-ethoxycarbonylamino)-isoxazol-5-yl]-benzylamino}-propionic Acid] was run?
Answer: The IC50 was < 300 nM.

Question: Which IC50 does the source give for Cc1noc(-c2ccc(COC(Cc3ccccc3)C(=O)O)cc2)c1NC(=O)O[C@H](C)c1ccccc1 (stereo partly drawn) [Example 42, 2-{4-[3-Methyl-4-((R)-1-phenyl-ethoxycarbonylamino)-isoxazol-5-yl]-benzyloxy}-3-phenyl-propionic Acid] here?
Answer: Its IC50 is < 300 nM.

Question: How did the IC50 turn out when Cc1noc(-c2ccc(C(=O)N[C@H](Cc3ccc(C#N)cc3)C(=O)O)cc2)c1NC(=O)O[C@H](C)c1ccccc1Cl [Example 29, (R)-2-(4-{4-[(R)-1-(2-Chloro-phenyl)-ethoxycarbonylamino]-3-methyl-isoxazol-5-yl}-benzoylamino)-3-(4-cyano-phenyl)-propionic Acid] was run?
Answer: The IC50 was 1000 to 50000 nM.

Question: With Cc1c(NC(=O)O[C@H](C)c2ccccc2)c(-c2ccc(C(=O)N[C@H](Cc3ccc(F)cc3)C(=O)O)cc2)nn1C [Example 10, (R)-2-[[4-[1,5-dimethyl-4-((R)-1-phenylethoxycarbonylamino)pyrazol-3-yl]benzoyl]amino]-3-(4-fluorophenyl)propanoic acid] as the molecule, how does the IC50 read?
Answer: The IC50 was > 50000 nM.

Question: How did the IC50 turn out when C[C@@H](OC(=O)Nc1c(C(F)(F)F)cnn1-c1ccc(-c2ccc(C3(C(=O)O)CC3)cc2)cc1)c1ccccc1 [Example 54, (R)-1-{4′-[5-(1-Phenyl-ethoxycarbonylamino)-4-trifluoromethyl-pyrazol-1-yl]-biphenyl-4-yl}-cyclopropanecarboxylic Acid] was run?
Answer: Its IC50 is 300 to 1000 nM.

Question: For Cc1noc(-c2ccc(C(=O)N[C@@H](Cc3ccccc3)C(=O)O)cc2)c1NC(=O)O[C@H](C)c1ccccc1 [Example 6, 2(S)-[[4-[3-methyl-4-((R)-1-phenylethoxycarbonylamino)isoxazol-5-yl]benzoyl]amino]-3-phenyl-propanoic Acid], which IC50 is on record?
Answer: Its IC50 is > 50000 nM.

Question: Which IC50 does the source give for Cc1noc(-c2ccc(C(=O)NC3(C(=O)O)CC3)cc2)c1NC(=O)OC(C)c1ccccc1Cl (stereo not shown) [Example 1, 1-(4-{4-[1-(2-Chloro-phenyl)-ethoxycarbonylamino]-3-methyl-isoxazol-5-yl}-benzoylamino)-cyclopropanecarboxylic Acid] here?
Answer: Its IC50 is 1000 to 50000 nM.

Question: How did the IC50 turn out when Cc1cnn(-c2ccc(C(=O)N[C@H](Cc3ccccc3)C(=O)O)cc2)c1NC(=O)O[C@H](C)c1ccccc1Cl [Example 30, (R)-2-(4-{5-[(R)-1-(2-Chloro-phenyl)-ethoxycarbonylamino]-4-methyl-pyrazol-1-yl}-benzoylamino)-3-phenyl-propionic Acid] was run?
Answer: The IC50 was > 50000 nM and 1000 to 50000 nM.

Question: With C[C@@H](OC(=O)Nc1ccnn1-c1ccc(-c2ccc(C3(C(=O)O)CC3)cc2)nc1)c1ccccc1 [Example 56, (R)-1-(4-{5-[5-(1-Phenyl-ethoxycarbonylamino)-pyrazol-1-yl]-pyridin-2-yl}-phenyl)-cyclopropanecarboxylic Acid] as the molecule, how does the IC50 read?
Answer: The IC50 was < 300 nM.

Question: For Cc1noc(-c2ccc(CN[C@H](Cc3ccc(C(F)(F)F)cc3)C(=O)O)cc2)c1NC(=O)O[C@H](C)c1ccccc1 [Example 33, (R)-2-{4-[3-Methyl-4-((R)-1-phenyl-ethoxycarbonylamino)-isoxazol-5-yl]-benzylamino}-3-(4-trifluoromethyl-phenyl)-propionic Acid], which IC50 is on record?
Answer: The IC50 was < 300 nM.

Question: Which IC50 does the source give for Cc1noc(-c2ccc(COC(Cc3ccc(Cl)cc3)C(=O)O)cc2)c1OC(=O)O[C@H](C)c1ccccc1 (mixture of isomers) [Example 45, (RS)-3-(4-Chloro-phenyl)-2-{4-[3-methyl-4-((R)-1-phenyl-ethoxycarbonyloxy)-isoxazol-5-yl]-benzyloxy}-propionic Acid] here?
Answer: The IC50 was < 300 nM.

Question: For Cc1noc(-c2ccc(CN[C@H](Cc3ccc(C(F)(F)F)cc3)C(=O)O)cc2)c1NC(=O)O[C@H](C)c1ccccc1Cl [Example 39, (R)-2-(4-{4-[(R)-1-(2-Chloro-phenyl)-ethoxycarbonylamino]-3-methyl-isoxazol-5-yl}-benzylamino)-3-(4-trifluoromethyl-phenyl)-propionic Acid], which IC50 is on record?
Answer: The IC50 was < 300 nM.

Question: With Cc1noc(-c2ccc(C(=O)N[C@@H](Cc3ccccc3)C(=O)O)cc2)c1NC(=O)O[C@@H](C)c1ccccc1 [Example 19, (S)-2-{4-[3-Methyl-4-((S)-1-phenyl-ethoxycarbonylamino)-isoxazol-5-yl]-benzoylamino}-3-phenyl-propionic Acid] as the molecule, how does the IC50 read?
Answer: Its IC50 is > 50000 nM.

Question: Which IC50 does the source give for Cc1noc(-c2ccc(C(=O)N[C@H](Cc3ccccc3)C(=O)O)cc2)c1NC(=O)O[C@H](C)c1ccccc1 [Example 5, 2(R)-[[4-[3-methyl-4-((R)-1-phenylethoxycarbonylamino)isoxazol-5-yl]benzoyl]amino]-3-phenyl-propanoic Acid] here?
Answer: The IC50 was < 300 nM.

Question: With Cc1nn(C)c(-c2ccc(C(=O)N[C@H](Cc3ccc(F)c(F)c3)C(=O)O)cc2)c1NC(=O)O[C@H](C)c1ccccc1 [Example 15, (R)-3-(3,4-difluorophenyl)-2-[[4-[2,5-dimethyl-4-((R)-1-phenylethoxycarbonyl-amino)pyrazol-3-yl]benzoyl]amino]propanoic Acid] as the molecule, how does the IC50 read?
Answer: Its IC50 is > 50000 nM.

Question: Which IC50 does the source give for Cc1noc(-c2ccc(COC(CC3CC3)C(=O)O)cc2)c1NC(=O)O[C@H](C)c1ccccc1 (mixture of isomers) [Example 44, (RS)-3-Cyclopropyl-2-{4-[3-methyl-4-((R)-1-phenyl-ethoxycarbonylamino)-isoxazol-5-yl]-benzyloxy}-propionic Acid] here?
Answer: Its IC50 is < 300 nM.
